From patent US11166942B2 (PRAXIS BIOTECH LLC, priority 2018, dated 2021)
Read-outs that look alike come from different tables or passages of the source.

Tests used:
ATF4 = ATF4 expression inhibition assay (ATF4 5'UTR luciferase reporter, Tg-stressed HEK293T cells); assay type: cell-based, human; conditions: Homo sapiens, HEK-293T, 3 h; for inhibition at 0.1 µM: read-out: % ATF4 inhibition at 100 nM; for IC50: read-out: ATF4 inhbition IC50; for inhibition at 1 µM: read-out: % ATF4 inhibition at 1 μM
Experimental: The ATF4 reporter was prepared by fusing the human full length 5′UTR of ATF4 (NCBI Accession No. BC022088.2) upstream of the firefly luciferase coding sequence lacking the initiator methionine. The fused sequence was cloned into pLenti-EF1a-C-Myc-DDK-IRES-Puro cloning vector (Origen #PS100085) using standard methods. Virus production was carried out by using Lenti-X™ Packaging Single Shots Protocol (Clonetech #631276). Viral particles were used to transduce HEK293T cells (ATCC #CRL-3216, ATCC Manassas, Va.), which were subsequently selected with puromycin to generate stable cell line. Cells were maintained at 37° C. and 5% CO2 in DMEM-F12 (Hyclone #SH30023.02) supplemented with 10% heat-inactivated fetal bovine serum (Gibco #16000-044), 2 mM L-glutamine (Gibco #25030-081), 100 U/ml penicillin, and 100 μg/ml streptomycin (Gibco #15140-122).
HEK293T cells carrying the ATF4 luciferase reporter were plated on 96-well plates (Nunc) at 10,000 cells per well. Cells were treated two days after seeding with 100 nM thapsigargin (Tg) (Sigma-Aldrich #T9033) in the presence of 100 nM or 1 μM. For the assessment of the half-maximal inhibitory concentration (IC50) for selected compounds, dose-response assays were performed. Compounds were serially diluted using DMSO ranging from 0.1 nM to 1 μM. Cells without treatment or cells treated with Tg alone were used as controls. Assay plates containing cells were incubated for 3 hours at 37° C.
Luciferase reactions were performed using Luciferase Assay System (Promega #E1501) as specified by the manufacturer. Luminescence was read with an integration time of 1 s and a gain of 110 using a Cytation-5 multi-mode microplate reader (BioTek). Relative luminescence units were normalized to Tg treatment (0% inhibition) and untreated cells (100% inhibition) and the percentage of ATF4 inhibition was calculated.
Percentages of ATF4 inhibition after induction with Tg in the presence of 100 nM or 1 μM of certain test compounds are shown in Table 2. Also shown in Table 2 is the calculated IC50 for certain test compounds. […] Accordingly, inhibition of ATF4 expression as a result of the test compound indicates suppression of the ISR pathway.

[1] = test system: Chinese hamster ovary (CHO) cells; assay: Protein translation assay (puromycin labelling, CHO cells); assay type: cell-based; conditions: media alone = 100%; for % Recovery of protein expression (100 nM test compound): 100 nM compound; for activity at 1 µM: Cricetulus griseus, CHO
Experimental: Chinese hamster ovary (CHO) cells were maintained at 37° C. and 5% CO2 in Dulbecco's Modified Eagle's Media (DMEM) supplemented with 10% fetal bovine serum, 2 mM L-glutamine, 100 U/ml penicillin, and 100 μg/ml streptomycin. After reaching 80% of confluence, cells were detached and seeded on 6 well plates in complete media, allowed to recover overnight and treated for 2 hours with 1 μM of the test compound (to assess protein synthesis levels in unstressed condition), or for 1 hour with 100 nM or 1 μM of the test compound and then co-treated with 300 nM Tg and 100 nM or 1 μM of the test compound (to assess the recovery of protein synthesis in a stressed condition). Cells treated with Tg alone were used as controls.
After the 2 hours treatments, media were replaced by adding 10 μg/ml puromycin (Sigma Aldrich #P8833) in complete media for 30 min. Media were removed and cells were lysed with SDS-PAGE lysis buffer. Lysates were transferred to 1.5 ml tubes and sonicated for 3 min and total protein amount were quantified using BCA Protein Assay Kit (Pierce). Equal amount of protein (30 μg) was loaded on SDS-PAGE gels. Proteins were transferred onto 0.2 μm PVDF membranes (BioRad) and probed with primary antibodies diluted in Tris-buffered saline supplemented with 0.1% Tween 20 (Merck #S6996184 505) and 3% bovine serum albumin (Rockland #BSA-50).
Puromycin (12D10) (Merck #MABE343) and β-actin (Sigma Aldrich #A5441) antibodies were used as primary antibody. A HRP-conjugated secondary antibody (Rockland) was employed to detect immune-reactive bands using enhanced chemiluminescence (ECL Western Blotting Substrate, Pierce). Quantification of protein bands was done by densitometry using ImageJ software.
Percent increase of protein synthesis in unstressed cells (without Tg treatment) in the presence of media alone or certain test compounds is shown in Table 3 The percentage levels were normalized to the media alone condition, which correspond to 100% protein synthesis.
Percent recovery of protein synthesis in stressed cells (with Tg treatment) due to the test compounds at 100 nM or 1 μM is also shown in Table 3. The levels were normalized to the media alone and to Tg alone conditions, which correspond to 100% and 0% respectively.

[2] = 100 nM test compound, 100 nM thapsigargin, 3 hours, HEK293T ATF4 luciferase reporter
[3] = 100 nM thapsigargin, 3 hours, HEK293T ATF4 luciferase reporter
[4] = 1 μM test compound, 100 nM thapsigargin, 3 hours, HEK293T ATF4 luciferase reporter
[5] = CHO cells stressed with 300 nM Tg, Tg alone = 0%
[6] = 2 h, unstressed CHO cells, 1 μM, 2 hours, read-out: % Protein synthesis in unstressed cells (1 μM test compound)
[7] = CHO cells stressed with 300 nM Tg, 1 μM compound, Tg alone = 0%, read-out: % Recovery of protein expression (1 μM test compound)

Structure (SMILES) | inhibition at 0.1 µM (ATF4; [2]) | IC50 (ATF4; [3]) | inhibition at 1 µM (ATF4; [4]) | % Recovery of protein expression (100 nM test compound) [1, 5] | activity at 1 µM [1, 6] | activity at 1 µM [1, 7] | inhibition at 0.1 µM (ATF4) | inhibition at 1 µM (ATF4) | IC50 (ATF4)
O=C(COc1ccc(Cl)c(F)c1)NN1CCC(NC(=O)c2ccc3cc(Cl)ccc3n2)CC1 [Compound 3, 6-chloro-N-(1-(2-(4-chloro-3-fluorophenoxy)acetamido)piperidin-4-yl)quinoline-2-carboxamide] | 88.1% | 10.6 nM | 92.2% | 81.6% | 152% | 190% | – | – | –
O=C(COc1ccc(Cl)c(F)c1)NN1CCC(NC(=O)c2cc3cc(Cl)ccc3o2)CC1 [Compound 5, 5-chloro-N-(1-(2-(4-chloro-3-fluorophenoxy)acetamido)piperidin-4-yl)benzofuran-2-carboxamide] | 85.7% | 18.8 nM | 93.7% | −7.1% | 135% | 110% | – | – | –
O=C(COc1ccc(Cl)c(F)c1)NN1CCN(CC(O)COc2ccc(Cl)c(F)c2)CC1 (stereo not drawn) [Compound 6, 2-(4-chloro-3-fluorophenoxy)-N-(4-(3-(4-chloro-3-fluorophenoxy)-2-hydroxypropyl)piperazin-1-yl)acetamide] | 75.9% | 30.8 nM | 83.8% | 16.7% | 97.9% | 105% | – | – | –
O=C(COc1ccc(Cl)c(F)c1)NN1CCC(NCC(O)COc2ccc(Cl)c(F)c2)CC1 (stereo not drawn) [Compound 8, 2-(4-chloro-3-fluorophenoxy)-N-(4-((3-(4-chloro-3-fluorophenoxy)-2-hydroxypropyl)amino)piperidin-1-yl)acetamide] | – | – | – | – | 121% | 52.1% | 44.2% | 70.9% | 153 nM
O=C(NN1CCN(CC(O)COc2ccc(Cl)c(F)c2)CC1)c1ccc2cc(Cl)ccc2c1 (stereo not drawn) [Compound 14, 6-chloro-N-(4-(3-(4-chloro-3-fluorophenoxy)-2-hydroxypropyl)piperazin-1-yl)-2-naphthamide] | – | – | – | – | 139% | 175% | 89.3% | 98.9% | 10.2 nM
O=C(NN1CCN(CC(O)COc2ccc(Cl)c(F)c2)CC1)c1ccc2cc(Cl)ccc2n1 (stereo not drawn) [Compound 15, 6-chloro-N-(4-(3-(4-chloro-3-fluorophenoxy)-2-hydroxypropyl)piperazin-1-yl)quinoline-2-carboxamide] | – | – | – | – | 119% | 248% | 87.8% | 100% | 12.4 nM
O=C(COc1ccc(Cl)c(F)c1)NN1CCN(CCCOc2ccc(Cl)c(F)c2)CC1 [Compound 16, 2-(4-chloro-3-fluorophenoxy)-N-(4-(3-(4-chloro-3-fluorophenoxy)propyl)piperazin-1-yl)acetamide] | – | – | – | – | 66.1% | -5.5% | 46.3% | 91.6% | 125 nM
O=C(NN1CCN(CCCOc2ccc(Cl)c(F)c2)CC1)c1ccc2cc(Cl)ccc2n1 [Compound 17, 6-chloro-N-(4-(3-(4-chloro-3-fluorophenoxy)propyl)piperazin-1-yl)quinoline-2-carboxamide] | – | – | – | – | 117% | 188% | 58.6% | 92.7% | 79.1 nM
O=C(NN1CCN(CCCOc2ccc(Cl)c(F)c2)CC1)c1cc2cc(Cl)ccc2o1 [Compound 18, 5-chloro-N-(4-(3-(4-chloro-3-fluorophenoxy)propyl)piperazin-1-yl) benzofuran-2-carboxamide] | – | – | – | – | 89.3% | 143% | 59.1% | 94.6% | 76.3 nM
O=C(NN1CCN(CC(O)COc2ccc(Cl)c(F)c2)CC1)c1cc2cc(Cl)ccc2o1 (stereo not drawn) [Compound 19, 5-chloro-N-(4-(3-(4-chloro-3-fluorophenoxy)-2-hydroxypropyl)piperazin-1-yl)benzofuran-2-carboxamide] | – | – | – | – | 115% | 175% | 87.3% | 95.8% | 11.5 nM
O=C(NN1CCC(NCC(O)COc2ccc(Cl)c(F)c2)CC1)c1ccc2cc(Cl)ccc2n1 (stereo not drawn) [Compound 20, 6-chloro-N-(4-((3-(4-chloro-3-fluorophenoxy)-2-hydroxypropyl)amino)piperidin-1-yl)quinoline-2-carboxamide] | – | – | – | – | 155% | 358% | 24.7% | 33.7% | > 10000 nM
O=C(NN1CCC(NCC(O)COc2ccc(Cl)c(F)c2)CC1)c1cc2cc(Cl)ccc2o1 (stereo not drawn) [Compound 21, 5-chloro-N-(4-((3-(4-chloro-3-fluorophenoxy)-2-hydroxypropyl)amino)piperidin-1-yl)benzofuran-2-carboxamide] | – | – | – | – | 129% | 236% | 68.6% | 86.9% | 61.9 nM
O=C(COc1ccc(Cl)c(F)c1)NN1CCC(NCCOc2ccc(Cl)c(F)c2)CC1 [Compound 22, 2-(4-chloro-3-fluorophenoxy)-N-(4-((2-(4-chloro-3-fluorophenoxy)ethyl)amino)piperidin-1-yl)acetamide] | – | – | – | – | 94.8% | 105% | 87.5% | 92.8% | 10.3 nM
O=C(NN1CCC(NCCOc2ccc(Cl)c(F)c2)CC1)c1ccc2cc(Cl)ccc2n1 [Compound 23, 6-chloro-N-(4-((2-(4-chloro-3-fluorophenoxy)ethyl)amino)piperidin-1-yl)quinoline-2-carboxamide] | – | – | – | – | 178% | 249% | 67.2% | 89.3% | 55.6 nM
O=C(NN1CCC(NCCOc2ccc(Cl)c(F)c2)CC1)c1cc2cc(Cl)ccc2o1 [Compound 24, 5-chloro-N-(4-((2-(4-chloro-3-fluorophenoxy)ethyl)amino)piperidin-1-yl)benzofuran-2-carboxamide] | – | – | – | – | 144% | 183% | 88% | 99.5% | 32.2 nM
